In publication PMC9455983 (International Journal of Molecular Sciences, 2022):
pKi: −log10 of the molar value. Where two headings read alike, the source gives them in different places.

Columns and labels:
[1] = target: T1, mu-opioid receptor (MOR) (Rattus norvegicus, UniProt P33535); experiment: MOR radioligand competition binding assay ([3H]-DAMGO); conditions: Mu screening results
T1 construct: Rat cortices were homogenized using 50 mM Tris, pH 7.4, and centrifuged at 16,500 rpm for 10 min; from tissue; host or cells: rat cortex membranes
In short: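 Competition for 2 nM [3H]-DAMGO binding was measured in rat cortex membrane suspension (50 mM Tris, pH 7.4, plus 2 mg/mL bovine serum). After filtration through GF/B filters pre-soaked in BSA, filter radioactivity was counted. Data are two duplicate experiments reported as mean ± SD.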

[2] = target: T2, kappa-opioid receptor (KOR) (Cavia porcellus, UniProt P41144); experiment: KOR radioligand competition binding assay ([3H]U69,593); parameters: species or system guinea pig; conditions: Kappa screening results
T2 construct: Guinea pig cortices and cerebella were homogenized using 50 mM Tris, pH 7.4; from tissue; host or cells: guinea pig cortex and cerebellum membranes
In short: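 Guinea pig cortex and cerebellum homogenates in 50 mM Tris pH 7.4 with 10 mM MgCl2, 2 nM [3H]U69,593, 2 h at 25 °C. Unlabeled U50,488 gave the standard curve and nonspecific binding. Filtration on BSA-soaked GF/B filters, scintillation counting; two replicates, repeated twice, mean ± SD.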

[3] = target: T3, delta-opioid receptor (DOR) (Rattus norvegicus, UniProt P33533); experiment: DOR radioligand competition binding assay ([3H]-DPDPE); conditions: Delta screening results
T3 construct: Rat cortices were homogenized using 50 mM Tris, pH 7.4, 10 mM MgCl2-6H2O, 200 µM PMSF; from tissue; host or cells: rat cortex membranes
In short: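 Radioligand was 2 nM [3H]-DPDPE, incubated 2.5 h at 25 °C with homogenized rat cortex (50 mM Tris pH 7.4, 10 mM MgCl2, 200 µM PMSF). Bound ligand separated on GF/B filters and counted; nonspecific binding from unlabeled DPDPE. Values are mean ± SD, two experiments, two replicates each.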

[4] = experiment 1, unit inferred, read-out: Ki (Exp 1)
[5] = experiment 2, unit inferred, read-out: Ki (Exp 2)
[6] = mean of Exp 1 and Exp 2, unit inferred, read-out: MEAN (Ki)
[7] = mean of two experiments, read-out: Ki
[8] = first Ki column, unit not printed (apparently M), read-out: Ki (first column)
[9] = mean of both Ki, unit inferred, read-out: MEAN (Ki)
[10] = second Ki column, unit not printed (apparently M), read-out: Ki (second column)

Row | Compound | pKi [1, 4] | pKi [1, 5] | pKi [1, 6] | pKi [1, 7] | pKi [2, 4] | pKi [2, 5] | pKi [2, 6] | pKi [2, 7] | pKi [3, 8] | pKi [3, 9] | pKi [3, 7] | pKi [3, 10]
1 | Cc1cc(O)cc(C)c1C[C@H]1CNC(=N)N1C[C@H](CC(C)C)N1C[C@H](Cc2ccc(O)cc2)NC1=N [1968-58] | 7.26 | 7.21 | 7.23 | 7.23 | 6.27 | 6.11 | 6.18 | 6.18 | 5.94 | 6.05 | 6.05 | 6.20
2 | Cc1cc(O)cc(C)c1C[C@H]1CNC(=N)N1C[C@H](CC(C)C)N1C[C@H](CC(C)C)NC1=N [1968-59] | 6.78 | 6.81 | 6.79 | 6.79 | 6.65 | 6.50 | 6.57 | 6.57 | 5.42 | 5.38 | 5.38 | 5.34
3 | Cc1cc(O)cc(C)c1C[C@H]1CN([C@@H](CC(C)C)CN2C(=N)NC[C@@H]2Cc2c(C)cc(O)cc2C)C(=N)N1 [1968-60] | 7.18 | 7.15 | 7.16 | 7.16 | 6.51 | 6.37 | 6.44 | 6.44 | 6.01 | 6.09 | 6.09 | 6.19
4 | Cc1cc(O)cc(C)c1C[C@H]1CNC(=N)N1C[C@H](Cc1c(C)cc(O)cc1C)N1C[C@H](Cc2ccccc2)NC1=N [1968-61] | 7.39 | 7.25 | 7.32 | 7.32 | 6.06 | 5.91 | 5.98 | 5.98 | 5.97 | 5.99 | 5.99 | 6.01
5 | Cc1cc(O)cc(C)c1C[C@H]1CNC(=N)N1C[C@H](Cc1c(C)cc(O)cc1C)N1C[C@H](Cc2ccc(O)cc2)NC1=N [1968-62] | 7.19 | 7.11 | 7.15 | 7.15 | 5.64 | 5.63 | 5.63 | 5.63 | 5.82 | 5.89 | 5.89 | 5.99
6 | Cc1cc(O)cc(C)c1C[C@H]1CNC(=N)N1C[C@H](Cc1c(C)cc(O)cc1C)N1C[C@H](CC(C)C)NC1=N [1968-63] | 7.20 | 7.01 | 7.09 | 7.09 | 5.79 | 5.83 | 5.81 | 5.81 | 5.64 | 5.62 | 5.62 | 5.60
7 | Cc1cc(O)cc(C)c1C[C@H]1CN([C@@H](Cc2c(C)cc(O)cc2C)CN2C(=N)NC[C@@H]2Cc2c(C)cc(O)cc2C)C(=N)N1 [1968-64] | 7.23 | 7.06 | 7.13 | 7.14 | 5.55 | 5.80 | 5.66 | 5.66 | 6.29 | 6.24 | 6.24 | 6.19
8 | N=C1NC[C@H](Cc2ccccc2)N1C[C@H](Cc1ccccc1)N1C[C@H](Cc2ccccc2)NC1=N [1968-65] | 5.63 | 5.55 | 5.59 | 5.59 | 4.78 | 4.82 | 4.80 | 4.80 | 5.13 | 5.14 | 5.14 | 5.14
9 | CC(C)C[C@H]1CN([C@@H](Cc2ccc(O)cc2)CN2C(=N)NC[C@@H]2Cc2ccccc2)C(=N)N1 [1968-66] | 5.69 | 5.70 | 5.69 | 5.70 | 5.58 | 5.48 | 5.52 | 5.52 | 4.74 |  |  | 
10 | Cc1cc(O)cc(C)c1C[C@@H](CN1C(=N)NC[C@@H]1Cc1ccccc1)N1C[C@H](Cc2ccccc2)NC1=N [1968-67] | 6.64 | 6.75 | 6.69 | 6.69 | 5.91 | 5.95 | 5.93 | 5.93 | 6.08 | 6.08 | 6.08 | 6.08
11 | Cc1cc(O)cc(C)c1C[C@H]1CN([C@@H](Cc2c(C)cc(O)cc2C)CN2C(=N)NC[C@@H]2Cc2ccccc2)C(=N)N1 [1968-68] | 7.05 | 7.12 | 7.08 | 7.08 | 6.27 | 6.25 | 6.26 | 6.26 | 6.37 | 6.34 | 6.34 | 6.30
12 | CC(C)C[C@H]1CN([C@@H](Cc2ccccc2)CN2C(=N)NC[C@@H]2Cc2ccc(O)cc2)C(=N)N1 [1968-69] | 6.68 | 6.73 | 6.70 | 6.70 | 5.67 | 5.67 | 5.67 | 5.67 | 5.37 | 5.33 | 5.33 | 5.30
13 | N=C1NC[C@H](Cc2ccc(O)cc2)N1C[C@H](Cc1ccc(O)cc1)N1C[C@H](Cc2ccc(O)cc2)NC1=N [1968-70] | 6.64 | 6.55 | 6.59 | 6.59 | 4.95 | 5.26 | 5.08 | 5.08 | 5.00 | 4.97 | 4.97 | 4.93
14 | Cc1cc(O)cc(C)c1C[C@H]1CNC(=N)N1C[C@H](Cc1ccc(O)cc1)N1C[C@H](CC(C)C)NC1=N [1968-71] | 7.24 | 7.28 | 7.26 | 7.25 | 6.43 | 6.41 | 6.42 | 6.42 | 5.42 | 5.46 | 5.47 | 5.52
